Reference: US11718618B2, “Substituted pyrido[2,1-a]isoquinolines as VMAT2 inhibitors” (priority 2021, dated 2023)

These compounds were tested against human VMAT2 (Homo sapiens (Human), UniProt Q05940) (assay: VMAT2 radioligand binding, 3H-dihydrotetrabenazine competition on human platelet homogenate). Conditions: 10 nM 3H-dihydrotetrabenazine, human platelet homogenate, 25° C., 90 minutes; read-out: VMAT2 Ki.
Sequence of human VMAT2 (Q05940 whole entry): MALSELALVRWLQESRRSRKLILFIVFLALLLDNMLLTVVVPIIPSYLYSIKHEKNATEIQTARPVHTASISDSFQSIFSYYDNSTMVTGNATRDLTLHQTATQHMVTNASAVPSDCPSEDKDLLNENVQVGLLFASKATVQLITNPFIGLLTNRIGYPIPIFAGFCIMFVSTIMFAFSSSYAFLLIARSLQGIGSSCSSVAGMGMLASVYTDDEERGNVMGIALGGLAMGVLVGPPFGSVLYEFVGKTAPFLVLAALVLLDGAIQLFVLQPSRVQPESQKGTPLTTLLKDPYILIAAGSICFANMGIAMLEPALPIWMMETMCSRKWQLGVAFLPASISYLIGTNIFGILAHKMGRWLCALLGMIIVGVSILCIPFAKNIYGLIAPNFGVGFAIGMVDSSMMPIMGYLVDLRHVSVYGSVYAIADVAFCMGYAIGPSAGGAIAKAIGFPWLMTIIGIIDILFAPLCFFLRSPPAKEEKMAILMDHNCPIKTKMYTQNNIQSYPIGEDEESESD
Protocol: Examples of techniques for determining the capability of a compound to inhibit VMAT2 are provided below. The procedure was adapted from that described previously (see, e.g., Near, (1986), Mol. Pharmacol. 30: 252-57; Teng, et al., J. Neurochem. 71, 258-65, 1998). Homogenates from human platelets were prepared by homogenization and then washed by centrifugation as described previously (see, e.g., Hoare et al., (2003) Peptides 24:1881-97).
The human VMAT2 Ki values for the compounds listed in Table 15A and Table 15B were determined using the following procedures. Compound dilution series in DMSO were generated from either powder stocks by hand, or from DMSO stocks using serial dilution on a Vantage (Hamilton), or direct dilution using an Echo 655 (Beckman). In a total volume of 0.145 to 0.150 mL in low-binding 96-well plates (Corning #3605), twelve concentrations of test compound were competed against 10 nM ^3H-dihydrotetrabenezine (American Radiolabeled Chemicals) on human platelet homogenate (30 μg membrane protein per well) in VMAT2 binding buffer (Dulbecco's phosphate buffered saline, 1 mM EDTA, pH 7.4). Following incubation at 25° C. for 90 minutes, bound radioligand was collected by rapid filtration onto either GF/B or GF/C glass fiber filters, pretreated with 0.100 polyethylenimine, using either a Unifilter-96 Harvester (PerkinElmer) or Microlab Star (Hamilton). Following harvesting the filter plates were washed with 0.8 mL VMAT2 binding buffer, and bound radioligand was quantified by scintillation counting using a Topcount NXT or Microplate Counter Microbeta (PerkinElmer).
For `COc1cc2c(cc1OCC(F)F)CCN1C[C@H](CC(C)(C)C)[C@H](O)C[C@@H]21` [Compound 4-2, (2R,3S,11bS)-9-(2,2-difluoroethoxy)-3-(2,2-dimethylpropyl)-10-methoxy-1H,2H,3H,4H,6H,7H,11bH-pyrido[2,1-a]isoquinolin-2-ol], the Ki was 467 nM. `COc1cc2c(cc1OCC(C)(F)F)CCN1C[C@H](CC(C)(C)C)[C@H](O)C[C@@H]21` [Compound 4-3, (2R,3S,11bS)-9-(2,2-difluoropropoxy)-3-(2,2-dimethylpropyl)-10-methoxy-1H,2H,3H,4H,6H,7H,11bH-pyrido[2,1-a]isoquinolin-2-ol] was tested, and the Ki was 152 nM. `COc1cc2c(cc1OCC(F)(F)F)CCN1C[C@H](CC(C)(C)C)[C@H](O)C[C@@H]21` [Compound 4-4, (2R,3S,11bS)-3-(2,2-dimethylpropyl)-10-methoxy-9-(2,2,2-trifluoroethoxy)-1H,2H,3H,4H,6H,7H,11bH-pyrido[2,1-a]isoquinolin-2-ol] was tested, and the Ki was 170 nM. `COc1cc2c(cc1OCCC(F)(F)F)CCN1C[C@H](CC(C)(C)C)[C@H](O)C[C@@H]21` [Compound 4-5, (2R,3S,11bS)-3-(2,2-dimethylpropyl)-10-methoxy-9-(3,3,3-trifluoropropoxy)-1H,2H,3H,4H,6H,7H,11bH-pyrido[2,1-a]isoquinolin-2-ol] gave a Ki of 135 nM. `COc1cc2c(cc1OCC(F)F)CCN1C[C@H](CC(C)(C)C)[C@@H](O)C[C@@H]21` [Compound 4-6, (2S,3S,11bS)-9-(2,2-difluoroethoxy)-3-(2,2-dimethylpropyl)-10-methoxy-1H,2H,3H,4H,6H,7H,11bH-pyrido[2,1-a]isoquinolin-2-ol] gave a Ki of 860 nM. `COc1cc2c(cc1OCC(C)(F)F)CCN1C[C@H](CC(C)(C)C)[C@@H](O)C[C@@H]21` [Compound 4-7, (2S,3S,11bS)-9-(2,2-difluoropropoxy)-3-(2,2-dimethylpropyl)-10-methoxy-1H,2H,3H,4H,6H,7H,11bH-pyrido[2,1-a]isoquinolin-2-ol] was tested, and the Ki was 539 nM. Work on `COc1cc2c(cc1OCC(F)(F)F)CCN1C[C@H](CC(C)(C)C)[C@@H](O)C[C@@H]21` [Compound 4-8, (2S,3S,11bS)-3-(2,2-dimethylpropyl)-10-methoxy-9-(2,2,2-trifluoroethoxy)-1H,2H,3H,4H,6H,7H,11bH-pyrido[2,1-a]isoquinolin-2-ol] yielded a Ki of 597 nM. `COc1cc2c(cc1OCCOC1COC1)CCN1C[C@@H](CC(C)(C)C)[C@H](O)C[C@H]21` [Compound 4-20, (2R,3R,11bR)-3-(2,2-dimethylpropyl)-10-methoxy-9-[2-(oxetan-3-yloxy)ethoxy]-1H,2H,3H,4H,6H,7H,11bH-pyrido[2,1-a]isoquinolin-2-ol] was tested, and the Ki was 336 nM. `COc1cc2c(cc1OC[C@@H]1CCO1)CCN1C[C@@H](CC(C)(C)C)[C@H](O)C[C@H]21` [Compound 4-21, (2R,3R,11bR)-3-(2,2-dimethylpropyl)-10-methoxy-9-[(2S)-oxetan-2-ylmethoxy]-1H,2H,3H,4H,6H,7H,11bH-pyrido[2,1-a]isoquinolin-2-ol] showed a Ki of 28 nM. `COc1cc2c(cc1OCC(=O)N(C)C)CCN1C[C@@H](CC(C)(C)C)[C@H](O)C[C@H]21` [Compound 4-33, 2-{[(2R,3R,11bR)-3-(2,2-dimethylpropyl)-2-hydroxy-10-methoxy-1H,2H,3H,4H,6H,7H,11bH-pyrido[2,1-a]isoquinolin-9-yl]oxy}-N,N-dimethylacetamide] was tested, and the Ki was greater than 10000 nM. `COc1cc2c(cc1OCCn1ccnc1)CCN1C[C@@H](CC(C)(C)C)[C@H](O)C[C@H]21` [Compound 4-34, (2R,3R,11bR)-3-(2,2-dimethylpropyl)-9-[2-(1H-imidazol-1-yl)ethoxy]-10-methoxy-1H,2H,3H,4H,6H,7H,11bH-pyrido[2,1-a]isoquinolin-2-ol] gave a Ki greater than 10000 nM. In the case of `CNC(=O)COc1cc2c(cc1OC)[C@H]1C[C@@H](O)[C@H](CC(C)(C)C)CN1CC2` [Compound 4-35, 2-{[(2R,3R,11bR)-3-(2,2-dimethylpropyl)-2-hydroxy-10-methoxy-1H,2H,3H,4H,6H,7H,11bH-pyrido[2,1-a]isoquinolin-9-yl]oxy}-N-methylacetamide], the Ki is reported as greater than 10000 nM. Work on `COc1cc2c(cc1OCC1CN(C)C1)CCN1C[C@@H](CC(C)(C)C)[C@H](O)C[C@H]21` [Compound 4-37, (2R,3R,11bR)-3-(2,2-dimethylpropyl)-10-methoxy-9-[(1-methylazetidin-3-yl)methoxy]-1H,2H,3H,4H,6H,7H,11bH-pyrido[2,1-a]isoquinolin-2-ol] yielded a Ki greater than 10000 nM. In the case of `COc1cc2c(cc1OC(C)C(F)(F)F)CCN1C[C@@H](CC(C)(C)C)[C@H](O)C[C@H]21` (stereo partly drawn) [Compound 4-39, (2R,3R,11bR)-3-(2,2-dimethylpropyl)-10-methoxy-9-[(1,1,1-trifluoropropan-2-yl)oxy]-1H,2H,3H,4H,6H,7H,11bH-pyrido[2,1-a]isoquinolin-2-ol], the Ki is reported as 12 nM. Work on `COC[C@H](O)COc1cc2c(cc1OC)[C@H]1C[C@@H](O)[C@H](CC(C)(C)C)CN1CC2` [Compound 4-48, (2R,3R,11bR)-3-(2,2-dimethylpropyl)-9-[(2S)-2-hydroxy-3-methoxypropoxy]-10-methoxy-1H,2H,3H,4H,6H,7H,11bH-pyrido[2,1-a]isoquinolin-2-ol] yielded a Ki of 313 nM. With `COc1cc2c(cc1OCC1(C(F)(F)F)CCCC1)CCN1C[C@@H](CC(C)(C)C)[C@H](O)C[C@H]21` [Compound 4-80, (2R,3R,11bR)-3-(2,2-dimethylpropyl)-10-methoxy-9-{[1-(trifluoromethyl)cyclo-pentyl]methoxy}-1H,2H,3H,4H,6H,7H,11bH-pyrido[2,1-a]isoquinolin-2-ol] the Ki was 133 nM. With `COc1cc2c(cc1OCc1ccc(C(F)(F)F)cc1)CCN1C[C@@H](CC(C)(C)C)[C@H](O)C[C@H]21` [Compound 4-81, (2R,3R,11bR)-3-(2,2-dimethylpropyl)-10-methoxy-9-{[4-(trifluoro-methyl)phenyl]methoxy}-1H,2H,3H,4H,6H,7H,11bH-pyrido[2,1-a]isoquinolin-2-ol] the Ki was 177 nM. In the case of `COc1cc2c(cc1OCc1ccc(C#N)cn1)CCN1C[C@@H](CC(C)(C)C)[C@H](O)C[C@H]21` [Compound 4-82, 6-({[(2R,3R,11bR)-3-(2,2-dimethylpropyl)-2-hydroxy-10-methoxy-1H,2H,3H,4H,6H,7H,11bH-pyrido[2,1-a]isoquinolin-9-yl]oxy}methyl)pyridine-3-carbonitrile], the Ki is reported as 198 nM. Work on `COc1cc2c(cc1OC[C@H](O)CO)CCN1C[C@@H](CC(C)(C)C)[C@H](O)C[C@H]21` [Compound 4-83, (2R)-3-{[(2R,3R,11bR)-3-(2,2-dimethylpropyl)-2-hydroxy-10-methoxy-1H,2H,3H,4H,6H,7H,11bH-pyrido[2,1-a]isoquinolin-9-yl]oxy}propane-1,2-diol] yielded a Ki of 207 nM. In the case of `COc1cc2c(cc1OCC(=O)N(C)CC(F)(F)F)CCN1C[C@@H](CC(C)(C)C)[C@H](O)C[C@H]21` [Compound 4-84, 2-{[(2R,3R,11bR)-3-(2,2-dimethylpropyl)-2-hydroxy-10-methoxy-1H,2H,3H,4H,6H,7H,11bH-pyrido[2,1-a]isoquinolin-9-yl]oxy}-N-methyl-N-(2,2,2-trifluoroethyl)acetamide], the Ki is reported as 272 nM. Work on `COc1cc2c(cc1OCCCS(C)(=O)=O)CCN1C[C@@H](CC(C)(C)C)[C@H](O)C[C@H]21` [Compound 4-85, (2R,3R,11bR)-3-(2,2-dimethylpropyl)-9-(3-methanesulfonylpropoxy)-10-methoxy-1H,2H,3H,4H,6H,7H,11bH-pyrido[2,1-a]isoquinolin-2-ol] yielded a Ki of 276 nM. `COc1cc2c(cc1OCS(=O)(=O)N(C)C)CCN1C[C@@H](CC(C)(C)C)[C@H](O)C[C@H]21` [Compound 4-86, 1-{[(2R,3R,11bR)-3-(2,2-dimethylpropyl)-2-hydroxy-10-methoxy-1H,2H,3H,4H,6H,7H,11bH-pyrido[2,1-a]isoquinolin-9-yl]oxy}-N,N-dimethylmethanesulfonamide] gave a Ki of 287 nM. Work on `COc1cc2c(cc1OC1CCN(CC(F)(F)F)C1=O)CCN1C[C@@H](CC(C)(C)C)[C@H](O)C[C@H]21` (stereo partly drawn) [Compound 4-87, 3-{[(2R,3R,11bR)-3-(2,2-dimethylpropyl)-2-hydroxy-10-methoxy-1H,2H,3H,4H,6H,7H,11bH-pyrido[2,1-a]isoquinolin-9-yl]oxy}-1-(2,2,2-trifluoroethyl)pyrrolidin-2-one] yielded a Ki of 650 nM. For `COc1cc2c(cc1OCCCO)CCN1C[C@@H](CC(C)(C)C)[C@H](O)C[C@H]21` [Compound 4-89, (2R,3R,11bR)-3-(2,2-dimethylpropyl)-9-(3-hydroxypropoxy)-10-methoxy-1H,2H,3H,4H,6H,7H,11bH-pyrido[2,1-a]isoquinolin-2-ol], the Ki was 140 nM. Work on `CCC(O)(CC)COc1cc2c(cc1OC)[C@H]1C[C@@H](O)[C@H](CC(C)(C)C)CN1CC2` [Compound 4-93, (2R,3R,11bR)-3-(2,2-dimethylpropyl)-9-(2-ethyl-2-hydroxybutoxy)-10-methoxy-1H,2H,3H,4H,6H,7H,11bH-pyrido[2,1-a]isoquinolin-2-ol] yielded a Ki of 281 nM.
